# Measurements as given in patent publication US20240140958A1, “FUSED QUADRACYCLIC COMPOUNDS, COMPOSITIONS AND USES THEREOF” (Tabomedex Biosciences, Inc., priority 2021, published 2024).
# pIC50: −log10 of the molar value.
# Tests used:
# [1] = system: THP-1 cells; experiment: THP-1 cell assay: LPS-stimulated pSer78-Hsp27 ELISA; type: cell-based; conditions: Homo sapiens, PMA-differentiated THP-1 cells, compound 60 min before 20 ng/mL LPS for 30 min
# Text: Materials and Reagents for Measuring Activity in THP-1 Cells: • 1) THP-1 cells (Cell bank of Shanghai) • 2) PMA (Sigma, Cat.No. P1585) • 3) LPS (Sigma, Cat.No. L4516) • 4) 96-well tissue-culture treated plate (Grenier, Cat.No. 655180) • 5) FBS (Thermofisher, Cat.No. 10100147) • 6) Complete EDTA-free protease inhibitor Cocktail (Roche, Cat.No. 4693132001) • 7) PhosSTOP (Roche, Cat.No. 4906845001) • 8) Phosphor-Hsp27 (Ser78) Sandwich Elisa kit (CST, Cat.No. 7295)
# Cell Assay Procedure: • 1) Day 0: THP-1 cells are seeded at 50K/well in complete media (1640+10% FBS+50 μM β-ME)+20 ng/mL PMA in 96-well plate • 2) Day 1: PMA containing media is removed after 24 h incubation (37° C./5% CO2), and replaced with complete growth media. Cells are incubated an additional 48 h to recover. • 3) Day 3: Cells are incubated with or without compounds at indicated concentrations for 60 min, prior to addition of 20 ng/mL LPS. Cells are stimulated for 30 min with LPS, washed 1× with ice cold PBS, lysed on ice in Lysis buffer provided in ELISA kit with Roche protease & phosphatase inhibitors. Extracts are clarified by refrigerated centrifugation & stored at −80° C. until pHsp27/total Hsp27 ELISAs • 4) Day 3 or Day 4: Cell Signaling Technology ELISA is run for pSer78-Hsp27 on lysates diluted to approximately 2.5 μg/well. • 5) The absorbance at 450 nm was read in a SpectraMax plus plate reader (Molecular Devices). Data was processed using GraphPad prism 8.0.
# [2] = target: T1, MAPKAPK2 Recombinant Human Protein (Homo sapiens, UniProt P49137); experiment: MK2 kinase assay (Z'-LYTE kinase assay kit); conditions: inhibition of MK2 biochemical activity; 90 min incubation at room temperature
# T1 construct: purchased ThermoFisher pv3317
# Protocol: Materials and Reagents for Measuring Inhibition of MK2 Biochemical Activity: • 1) Assay plate: 384 Well Low Volume Black Round Bottom Polystyrene NBS Microplate (Corning, Cat.No. 4514) • 2) MK2 kinase assay kit: Z' LYTE KINASE ASSAY KIT (ThermoFisher, Cat.No. pv3177) • 3) MAPKAPK2 Recombinant Human Protein (ThermoFisher, Cat.No. pv3317) • 4) DMSO (Vetec, Cat.No. V900090) • 5) DTT (Sigma, Cat.No. D0632)
# MK2 Kinase Assay Procedure: • 1) Dispense 5 μl Kinase/Peptide Mixture to each wells of 384-well plate • 2) Add 2.5 μl 4× Test Compound to each well • 3) Add 2.5 μl 4× ATP Solution to each well • 4) After 90 minutes incubation at room temperature, add 5 μl Development Solution to each well • 5) After 60 minutes incubation at room temperature, add 5 μl stop Solution to each well • 6) Measure the Coumarin (Ex. 400 nm, Em. 445 nm) and Fluorescein (Ex. 400 nm, Em. 520 nm) emission signals on an Envision plate reader (PerkinElmer)
# T1 sequence (P49137 whole entry): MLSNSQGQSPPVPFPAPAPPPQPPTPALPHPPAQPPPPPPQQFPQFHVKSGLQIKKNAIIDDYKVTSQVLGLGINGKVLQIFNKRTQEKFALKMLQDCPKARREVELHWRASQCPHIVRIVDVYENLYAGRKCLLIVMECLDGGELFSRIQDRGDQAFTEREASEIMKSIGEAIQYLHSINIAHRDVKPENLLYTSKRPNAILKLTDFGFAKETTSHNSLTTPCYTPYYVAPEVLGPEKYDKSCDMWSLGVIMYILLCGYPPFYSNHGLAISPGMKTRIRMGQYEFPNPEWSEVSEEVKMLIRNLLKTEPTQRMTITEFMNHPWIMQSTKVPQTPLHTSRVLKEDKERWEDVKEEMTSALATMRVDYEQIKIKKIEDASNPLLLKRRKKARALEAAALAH
Structure (SMILES),pIC50 [1],pIC50 [2]
"CN1CC(n2ccn(-c3ccc4c(c3)Cn3cc(-c5ccc(C#N)cc5)cc3-c3nccn3-4)c2=O)C1 [Example 71, 4-(7-(3-(1-Methylazetidin-3-yl)-2-oxo-2,3-dihydro-1H-imidazol-1-yl)-9H-benzo[e]imidazo[2,1-c]pyrrolo[1,2-a][1,4]diazepin-12-yl)benzonitrile]",6.52 to 6.70,7.00 to 7.30
"CN(C)CC1CCN(c2ccc3c(c2)Cn2cc(-c4ccc(C#N)cc4)cc2-c2nccn2-3)C1=O (centres unmarked) [Example 34, 4-(7-(3-((Dimethylamino)methyl)-2-oxopyrrolidin-1-yl)-9H-benzo[e]imidazo [2,1-c]pyrrolo[1,2-a][1,4]diazepin-12-yl)benzonitrile]",> 7.30,> 7.30
"CN(C)C[C@@H]1CN(c2ccc3c(c2)Cn2cc(-c4ccc(C#N)cc4)cc2-c2nccn2-3)C(=O)N1C [Example 56, (R)-4-(7-(4-((Dimethylamino)methyl)-3-methyl-2-oxoimidazolidin-1-yl)-9H-benzo[e]imidazo[2,1-c]pyrrolo[1,2-a][1,4]diazepin-12-yl)benzonitrile]",6.52 to 6.70,7.00 to 7.30
CC(C)(C)NC[C@@H]1CN(c2ccc3c(c2)Cn2cc(-c4ccc(C#N)cc4)cc2-c2nccn2-3)C(=O)O1 [Example 4],> 7.30,> 7.30
CN(C)C[C@H]1[C@@H]2CN(c3ccc4c(c3)Cn3cc(-c5ccc(C#N)cc5)cc3-c3nccn3-4)C(=O)[C@H]12 [Example 46],6.52 to 6.70,> 7.30
N#Cc1ccc(-c2cc3n(c2)Cc2cc(N4CC(=O)N(CC5CNC5)C4=O)ccc2-n2ccnc2-3)cc1 [Example 66],< 6.00,> 7.30
"CNC[C@@H]1CCN1C(=O)c1ccc2c(c1)Cn1cc(-c3ccc(C#N)cc3)cc1-c1nccn1-2 [Example 137, (S)-4-(7-(2-((Methylamino)methyl)azetidine-1-carbonyl)-9H-benzo[e]imidazo [2,1-c]pyrrolo[1,2-a][1,4]diazepin-12-yl)benzonitrile]",6.52 to 6.70,
"[2H]C([2H])([2H])N(C[C@@H]1CCN1C(=O)c1ccc2c(c1)Cn1cc(-c3ccc(C#N)cc3)cc1-c1nccn1-2)C([2H])([2H])[2H] [Example 120, (S)-4-(7-(2-((Bis(methyl-d3)amino)methyl)azetidine-1-carbonyl)-9H-benzo[e]imidazo[2,1-c]pyrrolo[1,2-a][1,4]diazepin-12-yl)benzonitrile]",> 7.30,
"[2H]C([2H])([2H])N(C([2H])([2H])[2H])C([2H])([2H])C1CCN(c2ccc3c(c2)Cn2cc(-c4ccc(C#N)cc4)cc2-c2nccn2-3)C1=O (centres unmarked) [Example 38, 4-(7-(3-((Dideuteratedmethylamino)deuteratedmethyl)-2-oxopyrrolidin-1-yl)-9H-benzo[e]imidazo[2,1-c]pyrrolo[1,2-a][1,4]diazepin-12-yl)benzonitrile]",,> 7.30
"CN(C)C[C@@H]1[C@@H]2CN(c3ccc4c(c3)Cn3cc(-c5ccc(C#N)cc5)cc3-c3nccn3-4)C(=O)[C@H]12 [Example 45, 4-(7-((1R,5S,6R)-6-((Dimethylamino)methyl)-2-oxo-3-azabicyclo[3.1.0]hexan-3-yl)-9H-benzo[e]imidazo[2,1-c]pyrrolo[1,2-a][1,4]diazepin-12-yl)benzonitrile]",,7.00 to 7.30
CN(C)CC(C)(C)NC(=O)c1ccc2c(c1)Cn1cc(-c3ccc(C#N)cc3)cc1-c1nccn1-2 [Example 130],,6.70 to 7.00
CN1CCC2(CC1)CN(C(=O)c1ccc3c(c1)Cn1cc(-c4ccc(C#N)cc4)cc1-c1nccn1-3)C2 [Example 131],,7.00 to 7.30
Cc1nnc2n1-c1ccc(N3C[C@@H](CN(C)C)OC3=O)cc1Cn1cc(-c3ccc(C#N)cc3)cc1-2 [Example 83],,7.00 to 7.30
Cc1nnc2n1-c1ccc(N3CCN(CCN(C)C)C3=O)cc1Cn1cc(-c3ccc(C#N)cc3)cc1-2 [Example 85],,> 7.30
